Laboratory results reported in US9926324B2, “Heteroaromatic compounds as PI3 kinase modulators and methods of use” (Calitor Sciences, LLC, priority 2012, dated 2018).

Assays:
[1] = Pharmacokinetic profiles in monkeys after intravenous and oral administration; format: in vivo; details: Monkey; for F: iv dose 1 mg/kg, oral dose generally 10 mg/kg; for Cl/F / AUC(0-t) / half-life / Vd: iv dosing 1 mg/kg; for AUC(0-t) / half-life / Vd: plasma; for Vd: read-out: Vss
Procedure: (§1) The compounds disclosed herein are assessed in pharmacokinetic studies in mice, rats, dogs or monkeys. The compounds are administered as a water solution, 2% HPMC+1% TWEEN® 80 in water solution, 5% DMSO+5% solutol in saline, 4% MC suspension or capsule. For the intravenous administration, the animals are generally given at 1 or 2 mg/kg dose. For the oral (p.o.) dosing, mice and rats are generally given 5 or 10 mg/kg dose, and dogs and monkeys are generally given 10 mg/kg dose. The blood samples (0.3 mL) are drawn at 0.25, 0.5, 1.0, 2.0, 3.0, 4.0, 6.0, 8.0, 12 and 24 h time points or 0.083, 0.25, 0.5, 1.0, 2.0, 4.0, 6.0, 8.0 and 24 h time points and centrifuged at 3,000 or 4000 rpm for 2 to 10 min. The plasma solutions are collected, stored at −20° C. or −70° C. until analyzed by LC/MS/MS as described above.

PI3K (p110δ/p85α) (h) = biological target: T1, PI3K (p110δ/p85α) (h) (Homo sapiens, UniProt O00329); test: PI3K p110δ/p85α (h) non-radioactive HTRF assay; format: biochemical
T1 construct: purchased Millipore UK Ltd (assay service)
T1 sequence (O00329 whole entry): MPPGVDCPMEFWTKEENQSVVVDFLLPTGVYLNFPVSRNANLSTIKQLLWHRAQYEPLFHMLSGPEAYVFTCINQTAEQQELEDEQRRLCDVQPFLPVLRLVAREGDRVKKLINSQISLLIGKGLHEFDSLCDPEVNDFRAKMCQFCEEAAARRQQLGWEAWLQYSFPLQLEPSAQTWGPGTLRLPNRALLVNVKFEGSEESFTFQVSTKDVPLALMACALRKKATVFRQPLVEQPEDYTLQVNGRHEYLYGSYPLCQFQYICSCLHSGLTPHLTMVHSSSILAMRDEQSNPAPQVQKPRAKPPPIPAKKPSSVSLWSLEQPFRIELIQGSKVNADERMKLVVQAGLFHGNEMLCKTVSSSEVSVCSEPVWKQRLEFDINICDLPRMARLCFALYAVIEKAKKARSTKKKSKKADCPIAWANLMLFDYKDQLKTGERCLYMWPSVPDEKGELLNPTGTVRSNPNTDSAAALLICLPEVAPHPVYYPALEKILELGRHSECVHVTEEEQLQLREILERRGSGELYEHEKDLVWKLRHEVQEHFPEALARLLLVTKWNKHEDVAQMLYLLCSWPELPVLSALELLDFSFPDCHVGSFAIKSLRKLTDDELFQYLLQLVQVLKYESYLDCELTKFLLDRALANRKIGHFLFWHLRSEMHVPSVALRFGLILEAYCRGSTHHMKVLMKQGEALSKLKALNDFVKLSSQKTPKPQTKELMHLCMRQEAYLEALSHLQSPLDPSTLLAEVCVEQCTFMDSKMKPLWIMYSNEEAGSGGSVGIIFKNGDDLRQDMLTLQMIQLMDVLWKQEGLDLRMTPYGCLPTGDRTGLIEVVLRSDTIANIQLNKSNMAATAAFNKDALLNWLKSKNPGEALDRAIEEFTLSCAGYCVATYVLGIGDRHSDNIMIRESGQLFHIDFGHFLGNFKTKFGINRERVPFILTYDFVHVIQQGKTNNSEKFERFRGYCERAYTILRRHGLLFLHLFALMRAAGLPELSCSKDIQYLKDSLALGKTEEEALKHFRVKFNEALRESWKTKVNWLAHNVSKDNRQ
T1 sequence (P27986 whole entry partner): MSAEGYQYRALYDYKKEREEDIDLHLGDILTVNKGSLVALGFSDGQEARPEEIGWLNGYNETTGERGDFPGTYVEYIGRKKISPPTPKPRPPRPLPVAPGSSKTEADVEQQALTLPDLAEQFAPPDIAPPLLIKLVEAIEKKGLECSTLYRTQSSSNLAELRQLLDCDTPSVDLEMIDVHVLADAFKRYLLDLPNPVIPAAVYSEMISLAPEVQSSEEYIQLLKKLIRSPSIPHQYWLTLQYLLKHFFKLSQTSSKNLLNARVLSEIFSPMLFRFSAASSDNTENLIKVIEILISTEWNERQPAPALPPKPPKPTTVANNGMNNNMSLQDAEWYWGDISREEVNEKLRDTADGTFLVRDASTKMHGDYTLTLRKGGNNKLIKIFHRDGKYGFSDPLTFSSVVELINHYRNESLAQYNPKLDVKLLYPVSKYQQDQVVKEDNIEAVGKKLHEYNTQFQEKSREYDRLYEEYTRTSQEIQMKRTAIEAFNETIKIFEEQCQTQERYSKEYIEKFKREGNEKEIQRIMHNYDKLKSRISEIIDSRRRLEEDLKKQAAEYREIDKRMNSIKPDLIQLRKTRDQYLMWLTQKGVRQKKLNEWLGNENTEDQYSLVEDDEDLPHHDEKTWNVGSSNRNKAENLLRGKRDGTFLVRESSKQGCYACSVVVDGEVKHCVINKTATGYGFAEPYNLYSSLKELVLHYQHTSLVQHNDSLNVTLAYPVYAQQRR
Procedure: PI3K (p110δ/p85α) (h) is incubated in assay buffer containing 10 μM phosphatidylinositol-4,5-bisphosphate and MgATP (concentration as required). The reaction is initiated by the addition of the MgATP mix. After incubation for 30 minutes at room temperature, the reaction is stopped by the addition of stop solution containing EDTA and biotinylated phosphatidylinositol-3,4,5-trisphosphate. Finally, detection buffer is added, which contains europium-labelled anti-GST monoclonal antibody, GST-tagged GRP1 PH domain and streptavidin-allophycocyanin. The plate is then read in timeresolved fluorescence mode and the homogenous time-resolved fluorescence (HTRF) signal is determined according to the formula HTRF=10000×(Em665 nm/Em620 nm).
(§2) The kinase assays described herein were performed at Millipore UK Ltd, Dundee Technology Park, Dundee DD2 1SW, UK.

[2] = Pharmacokinetic profiles in rats after intravenous and oral administration; format: in vivo; details: for F: oral dose generally 5 or 10 mg/kg; for AUC(0-t) / half-life / Vd: rat, plasma; for Vd: read-out: Vss
Procedure: as §1

mTOR (h) = biological target: T2, mTOR (h) (Homo sapiens, UniProt P42345); test: mTOR (h) kinase assay (33P-ATP, filter); format: biochemical
T2 construct: purchased Millipore UK Ltd (assay service)
Procedure: mTOR (h) is incubated with 50 mM HEPES pH 7.5, 1 mM EDTA, 0.01% Tween 20, 2 mg/mL substrate, 3 mM Manganese Chloride and [γ-^33P-ATP] (specific activity approx. 500 cpm/pmol, concentration as required). The reaction is initiated by the addition of the MnATP mix. After incubation for 40 minutes at room temperature, the reaction is stopped by the addition of 3% phosphoric acid solution. 10 μL of the reaction is then spotted onto a P30 filtermat and washed three times for 5 minutes in 75 mM phosphoric acid and once in methanol prior to drying and scintillation counting.
as §2

U87MG glioblastoma cells = test: Tumor xenograft model (U87MG), tumor growth inhibition; format: in vivo, athymic nude mice
Procedure: The efficacy of compounds disclosed herein was evaluated in a standard murine model of tumorigenesis. Human tumor cells (U87MG glioblastoma cells from ATCC) were expended in culture, harvested, and injected subcutaneously onto the rear flank of 6-7 week old female athymic nude mice (BALB/cA nu/nu, Hunan SLAC Laboratory Animal, Co.) (n=6-10 for vehicle group and for each dosing group). When tumors reached a volume of 100-250 mm^3, animals were randomly divided into vehicle control (for example, 5% DMSO+70% Captisol® (30%), 7% HCl (pH1), 18% Captisol® (30%); or 7% DMSO, 7% HCl (pH1), 70% Captisol® (30%), 16% Captisol® (30%), or the like) and compound groups. Subsequent administration of compound by oral gavage begins anywhere from day 0 to day 15 post tumor cell challenge and generally continues with once a day for the duration of the experiment.
Progression of tumor growth is assessed by tumor volumes and recorded as a function of time. The long (L) and short (W) axes of the subcutaneous tumors were measured with calipers twice weekly, and the tumor volume (TV) calculated as (L×W^2)/2). TGI was calculated from the difference between the median tumor volumes of vehicle-treated and drug-treated mice, expressed as a percentage of the median tumor volume of the vehicle-treated control group, by the following relation:
Initial statistical analysis is done by repeated measures analysis of variance (RMANOVA), followed by Scheffe psot hoc testing for multiple comparisons. Vehicle alone (5% DMSO+70% Captisol® (30%), 7% HCl (pH1), 18% Captisol® (30%); or 7% DMSO, 7% HCl (pH1), 70% Captisol® (30%), 16% Captisol® (30%), or the like) is the negative control.

Molecule `COc1ncc(-c2ccc3ncc(C#CCO)n3n2)cc1NS(=O)(=O)c1ccc(F)cc1F` [Ex. 9, 2,4-difluoro-N-(5-(3-(3-hydroxyprop-1-yn-1-yl)imidazo[1,2-b]pyridazin-6-yl)-2-methoxypyridin-3-yl)benzenesulfonamide] has an F [1] of 27.3%, a Cl/F [1] of 7.5 mL/min/kg and an AUC(0-t) [1] of 2370 ng·h/mL. It also gave a half-life [1] of 3.59 h, a Vd [1] of 0.39 L/kg and an IC50 (PI3K (p110δ/p85α) (h)) of 2 nM. It also gave an F ([2]; iv dose 1 mg/kg) of 104.2%, a Cl/F ([2]; iv dosing 1 mg/kg) of 2.33 mL/min/kg and an AUC(0-t) ([2]; iv dosing 1 mg/kg) of 7490 ng·h/mL. For the same molecule, the half-life ([2]; iv dosing 1 mg/kg) was 4.1 h, the Vd ([2]; iv dosing 1 mg/kg) was 0.37 L/kg and the IC50 (mTOR (h)) was 9 nM. For the same molecule, the “TGI % U87MG” value (U87MG glioblastoma cells; 1 mg/kg oral gavage, 12 days) was 23%, the “TGI % U87MG” value (U87MG glioblastoma cells; 3 mg/kg oral gavage, 12 days) was 26% and the “TGI % U87MG” value (U87MG glioblastoma cells; 10 mg/kg oral gavage, 12 days) was 62%.

For `COc1ncc(-c2ccc3ncc(C#CCO)n3c2)cc1NS(=O)(=O)c1ccc(F)cc1F` [Ex. 15, 2,4-difluoro-N-(5-(3-(3-hydroxyprop-1-yn-1-yl)imidazo[1,2-a]pyridin-6-yl)-2-methoxypyridin-3-yl)benzenesulfonamide], the F [1] was 55.4%, the Cl/F [1] was 5.33 mL/min/kg and the AUC(0-t) [1] was 3200 ng·h/mL. The half-life [1] was 5.89 h, the Vd [1] was 0.76 L/kg and the IC50 (PI3K (p110δ/p85α) (h)) was 1 nM. The F ([2]; iv dose 2 mg/kg) was 97.0%, the Cl/F ([2]; iv dosing 2 mg/kg) was 1.3 mL/min/kg and the AUC(0-t) ([2]; iv dosing 2 mg/kg) was 25600 ng·h/mL. The half-life ([2]; iv dosing 2 mg/kg) was 3.14 h, the Vd ([2]; iv dosing 2 mg/kg) was 0.22 L/kg and the IC50 (mTOR (h)) was 34 nM. The “TGI % U87MG” value (U87MG glioblastoma cells; 3 mg/kg oral gavage, 12 days) was 28% and the “TGI % U87MG” value (U87MG glioblastoma cells; 10 mg/kg oral gavage, 12 days) was 51%.

`COc1ncc(-c2ccc3ncc(C#CC(C)O)n3c2)cc1NS(=O)(=O)c1ccc(F)cc1F` (centres unmarked) [Ex. 16, 2,4-difluoro N (5 (3 (3 hydroxybut-1-yn-1-yl)imidazo[1,2-a]pyridin-6-yl)-2-methoxypyridin-3-yl)benzenesulfonamide] showed an IC50 (PI3K (p110δ/p85α) (h)) of 3 nM, an F ([2]; iv dose 1 mg/kg) of 99.77% and a Cl/F ([2]; iv dosing 1 mg/kg) of 1.67 mL/min/kg. It also gave an AUC(0-t) ([2]; iv dosing 1 mg/kg) of 19400 ng·h/mL, a half-life ([2]; iv dosing 1 mg/kg) of 2.65 h and a Vd ([2]; iv dosing 1 mg/kg) of 0.35 L/kg. The IC50 (mTOR (h)) was 31 nM, the “TGI % U87MG” value (U87MG glioblastoma cells; 3 mg/kg oral gavage, 12 days) was 14% and the “TGI % U87MG” value (U87MG glioblastoma cells; 10 mg/kg oral gavage, 12 days) was 43%.

In the case of `COc1ncc(-c2ccc3ncc(C#N)n3n2)cc1NS(=O)(=O)c1ccc(F)cc1F` [Ex. 24, N-(5-(3-cyanoimidazo[1,2-b]pyridazin-6-yl)-2-methoxypyridin-3-yl)-2,4-difluorobenzenesulfonamide], the F [1] is reported as 69.8%, the Cl/F [1] is reported as 3.67 mL/min/kg and the AUC(0-t) [1] is reported as 4640 ng·h/mL. It also gave a half-life [1] of 6.05 h, a Vd [1] of 0.64 L/kg and an IC50 (PI3K (p110δ/p85α) (h)) of 3 nM. For the same molecule, the F ([2]; iv dose 2 mg/kg) was 108%, the Cl/F ([2]; iv dosing 2 mg/kg) was 4 mL/min/kg and the AUC(0-t) ([2]; iv dosing 2 mg/kg) was 8400 ng·h/mL. It also gave a half-life ([2]; iv dosing 2 mg/kg) of 3.06 h, a Vd ([2]; iv dosing 2 mg/kg) of 0.55 L/kg and an IC50 (mTOR (h)) of 3 nM. The “TGI % U87MG” value (U87MG glioblastoma cells; 0.3 mg/kg oral gavage, 9 days) was 53%, the “TGI % U87MG” value (U87MG glioblastoma cells; 1 mg/kg oral gavage, 9 days) was 84% and the “TGI % U87MG” value (U87MG glioblastoma cells; 3 mg/kg oral gavage, 9 days) was 108%.
